# What was measured:
# [1] = test system: MITO-Luc mice (reporter of mitosis); test: Proliferation in the wound area, in vivo BLI of MITO-Luc mice; set-up: species or system mouse
# Description: Wound healing is a dynamic process consisting of four continuous, overlapping, and precisely programmed phases: hemostasis, inflammation, proliferation and tissue growth (proliferation) and remodeling (maturation). The healing effect of estrogens may be exerted at several levels, certainly the ability of the hormone to accelerate macrophage polarization towards the M2-reparative polarization stage plays a relevant role, however estrogens may also facilitate local cell proliferation and the formation of the granulation tissue, epithelialization, and wound contraction.
# The experiments were done with the 1e compound as completely deprived of any activity on the uterus (Fig. 6). […] Photon emission was measured in the wound area at the following time: 0, 24, 48 and 72 hours post-treatment.
# (§1) ERE-Luc and MITO-Luc mice were ovariectomized at two months of age; the experiment was done 2 weeks after surgery to allow the animals to recover and to decrease the levels of circulating estrogens. The animals were fed ad libitum with a special estrogen free diet (AIN 93 M, Mucedola) (Ciana et al. Endocrinology 2005) and housed in individually ventilated plastic cages within a temperature range of 22–25 °C, relative humidity of 50% ± 10% and under an automatic cycle of 12 h light/dark (lights on at 07:00 am). All animal experimentation was carried out in accordance with the ARRIVE and European Guidelines for Animal Care. All animal experiments were approved by the Italian Ministry of Research and University and controlled by a Departmental panel of experts. For the correct dosage of the compounds, the body weight of the animals (on empty stomach, fasted for at least 12–14 hours) was determined immediately before the treatment.
# Ovariectomy was carried out as previously described. Wound healing was done after shaving by VEET depilatory cream a day before the treatment. The 1 cm full-thickness incisional wound was made through the skin and panniculus carnosus muscle of ovariectomized MITO-luc using a surgical scalpel (blade n°10, carbon steel, Swann-Morton Ltd). Round full-thickness wounds were done by cutting out a section of full-thickness skin (around 9 mm in diameter) using fine scissors on the dorsal skin of the isoflurane-anesthetized animal. […]
# For the semi-quantitative analysis of in vivo photon emission, animals were injected i.p. with 80 mg/kg of luciferin (Beetle Luciferin Potassium Salt; Promega, Madison, WI, USA) 15 min prior the imaging session. […] Photon emission in selected body areas was measured using the Living Image Software (Caliper, PerkinElmer company). The analysis was done in ventral view: whole body, thymus, hepatic area, abdomen, limbs, vagina and in dorsal view in wound area and expressed as photon/second/cm2/steradiant (p/s/cm2/sr).
# [2] = test system: ER transcriptional activity; test: In vivo BLI time course in wounded ovariectomized ERE-Luc mice, compounds s.c. around the wound; set-up: species or system mouse
# Protocol: To study the estrogenic and healing properties of the two compounds, we generated a wound in the ERE-Luc mouse model and tested the activity of the two compounds administered s.c. in the area surrounding the wound as described in the methodology section.
# Each group was composed of 4 ERE-Luc females’ mice ovariectomized 2 weeks’ prior the experiment to avoid any interference due to endogenous estrogens. Photon emission was measured in the living animals three times: at 0, 3 and 6 h after s.c. injection.
# as §1
# (§2) Ovariectomy was carried out as previously described. Wound healing was done after shaving by VEET depilatory cream a day before the treatment. The 1 cm full-thickness incisional wound was made through the skin and panniculus carnosus muscle of ovariectomized MITO-luc using a surgical scalpel (blade n°10, carbon steel, Swann-Morton Ltd). Round full-thickness wounds were done by cutting out a section of full-thickness skin (around 9 mm in diameter) using fine scissors on the dorsal skin of the isoflurane-anesthetized animal. For in vivo treatment the compounds were administered onto the subcutaneous area surrounding the wound by multiple subcutaneous injection, immediately after the generation of the wound.
# (§3) For the semi-quantitative analysis of in vivo photon emission, animals were injected i.p. with 80 mg/kg of luciferin (Beetle Luciferin Potassium Salt; Promega, Madison, WI, USA) 15 min prior the imaging session. For the imaging, mice were anaesthetized using isofluorane (Isofluorane-Vet; Merial, Lyon, France) and kept under anesthesia during the 5 minutes of the session carried out with a CCD camera: both ventral and dorsal acquisition (Xenogen IVIS Lumina System; Caliper, PerkinElmer company). Photon emission in selected body areas was measured using the Living Image Software (Caliper, PerkinElmer company). The analysis was done in ventral view: whole body, thymus, hepatic area, abdomen, limbs, vagina and in dorsal view in wound area and expressed as photon/second/cm2/steradiant (p/s/cm2/sr).
# [3] = test system: ER transcriptional activity; test: Whole body in vivo bioluminescence imaging of ERE-Luc mice, dose-response after s.c. administration; set-up: species or system mouse; conditions: for Photon Emission, whole body: 6 h vs 0 h, n = 4
# Description: To investigate the activity of 1e and 1f at systemic level, we utilized the ERE-Luc reporter mice. The ERE-luc is a transgenic model obtained by random integration of a luciferase reporter driven by an estrogen-responsive promoter. The ubiquitous, regulated expression of luciferase was obtained by flanking the reporter construct with insulators.
# Here, the first study we carried out was a large-range dose-response analysis to measure whole body luciferase assay after subcutaneous administration of: (1) the vehicle; (2) corn oil as control; (3) the two compounds 1e and 1f at the dosage of 20 μg/kg, 200 μg/kg, 2 mg/kg and 20 mg/kg. The mice (4 for each experimental group) were subjected to in vivo whole body imaging 6 h after the pharmacological treatment. This time was selected on the basis of previous studies showing that the peak of ER transcriptional activation generally occurs at 6–8 h after administration of the estrogenic compounds[16], [17].
# as §3
# MITO-Luc mice = test: Granulation tissue histoscore of round full-thickness wound at day 10; format: in vivo, mouse; conditions: 200 µg/kg s.c., day 10, round wound, scale 1-3 (vehicle 0.3)
# Protocol: The measure of photon emission from the wound area was done for several days after the wounding. 3 days after treatment the bioluminescent signal is highest (Fig. 10 Panel a).
# as §2
# At the time of euthanasia, the wounds with surrounding healthy tissue were excised, distended on a strip of hard paper and fixed in 10% buffered formalin (pH = 6). […] For histopathological examination 4 µm sections were routinely stained with Hematoxylin-Eosin (HE) and evaluated under a light microscope. The degree of re-epithelialization, the type and amount of granulation tissue and inflammation, which are the main features of wound healing, were scored separately. […]
# ERE-Luc mice = test: Uterus weight of ERE-Luc mice; format: in vivo, mouse; conditions: 200 µg/kg s.c., 6 h after treatment, n = 4
# Description: The final study aiming at investigating the systemic effect of the NCE was done by measuring the uterus weight of all treated animal as the golden standard for the quantitative measure of estrogenic compounds.
structure (smiles),measurement,setting,value
"CCCCOC(=O)CCC#C[C@]1(O)CC[C@H]2[C@@H]3CCc4cc(O)ccc4[C@H]3CC[C@@]21C [1e, 3,17β-Hydroxy-17α-(4′carbobutoxy-1′-butyn-1′-yl)estra-1,3,5-(10)-triene]",increase of photon emission from wound,"[1]; 200 µg/kg s.c. around wound, 72 h versus time 0, ovx MITO-Luc",87%
same,photon emission from the wound area,"[1]; 200 µg/kg s.c., 48 hours after administration",significantly increased
same,"photon emission in body areas (whole body, thymus, hepatic area, abdomen, limbs, vagina)","[2]; 200 µg/kg s.c. around wound, 3 or 6 h, ovx mice",did not observe increased photon emission in any of the body areas
same,increase of photon emission in the wound area with respect to time 0,"[2]; 200 µg/kg s.c., 6 hours, trend",30%
same,"Photon Emission, whole body",[3]; 2 mg/kg s.c.,3 x
same,"Photon Emission, whole body",[3]; 20 mg/kg s.c.,12 x
same,expression of the luciferase reporter,"[3]; 2 and 20 mg/kg s.c., 6 h",induced the expression of the luciferase reporter around the area of subcutaneous injection and in some other body areas
same,effect at systemic level (whole body luciferase),"[3]; 20 and 200 μg/kg s.c., 6 h",did not induce any measurable effect
same,"Score of granulation tissue (fibrosis), histoscore mean",MITO-Luc mice,1.5
same,weight of the uterus versus controls,ERE-Luc mice,indistinguishable from controls
